Measurements published in patent US20070009455A1 (priority 2003, published 2007).
In brackets after ≈: the same amount, converted by molar mass.

What was measured:
tyrosinase = test: Tyrosinase inhibitory activity test; type: biochemical
Experimental: Tyrosine used as a substrate in main processes of melanin biosynthesis, mushroom tyrosinase, or tyrosinase fragments separated from melanocytes was added to test samples and incubated for a predetermined time. The absorbance of dopachrome that was a reaction product was measured at an absorption wavelength to evaluate the whitening effects of the test samples. Tyrosinase inhibitory activity (%)=100−((ODexp−ODcon)/ODstd×100)
ODexp: Absorbance of test sample containing tyrosinase
ODcon: Absorbance of test sample containing no tyrosinase
ODstd: Absorbance of standard sample containing tyrosinase

Human skin melanocytes = test: Whitening activity test: melanin production in skin melanocytes; type: cell-based; details: for Melanin production inhibitory activity (%): concentration of each test sample: 0.02%
Experimental: The whitening activity test based on […] of skin melanocytes was performed as the following method: • 1. Human skin melanocytes in MGM (Melanocyte Growth Media, Clonetics) media were incubated at a 5% CO2 incubator at 37° C. • 2. A predetermined number of cells (2×10^6) were cultured in75T culture flasks. When cell confluence was identified, test samples of a predetermined concentration were loaded in the cell cultures and incubated for 2-3 days. • 3. The cultures were removed, washed with phosphate buffered saline (PBS), and treated with trypsin solution, to harvest cells. • 4. The harvested cells were centrifuged to obtain cell pellets.
The colors of the cell pellets were observed. The cell pellets were dissolved in 1N NaOH and the absorbance was measured at 475 nm. • 5. The concentration of melanin was calculated by using absorbance values obtained from melanin standard and then converted to the concentration of melanin/the total protein concentration of melanocytes. […]=[(A−B)/A]×100
A: concentration of melain/concentration of protein in control
(control: melanocytes normally grown in a culture medium containing no test samples)
B: concentration of melain/concentration of protein in each test sample
To evaluate whitening activity, inhibitory activity of the compositions of Examples 7 and Comparative Examples 6-8 against melanin production in melanocytes of healthy persons were measured and the results are summarized in Table 13 below.

[1] = Free radical scavenging activity test (DPPH)
Experimental: When methanol solutions of test samples were converted to clear solutions due to scavenging of relatively stable deep blue-colored DPPH(1,1-diphenyl-2-hydrazyl) radicals, the degree of reduction of the absorbance of the methanol solutions was measured at 516 nm. Free radical scavenging activity (%)=100−( (ODexp−ODcon)/ODstd×100)
ODexp: Absorbance of test sample containing DPPH
ODcon: Absorbance of test sample containing no DPPH
ODstd: Absorbance of standard sample containing DPPH

IC50: 50% tyrosinase activity inhibition concentration (tyrosinase) [µg/mL]	Tyrosinase inhibitory activity (in words) (tyrosinase)	Compound	Inhibitory activity of melanin production (in words) (Human skin melanocytes; 0.02%)	Melanin production inhibitory activity (%) (Human skin melanocytes)	Free radical scavenging (in words) [1]
2 (≈ 8.76 µM)	excellent tyrosinase inhibitory activity	Oc1ccc(/C=C/c2cc(O)cc(O)c2)cc1 [Resveratrol]	excellent inhibitory activity of melanin production	53.17	–
–	–	OC[C@H]1O[C@@H](Oc2ccc(O)cc2)[C@H](O)[C@@H](O)[C@@H]1O [Albutin]	–	2.00	–
–	–	O=C1O[C@H]([C@@H](O)CO)C(O)=C1O [Vitamin C]	–	19.72	effective free radical scavengers
–	excellent tyrosinase inhibitory activity	O=c1cc(CO)occ1O [Cojic acid]	–	22.62	–
